In ChEMBL document CHEMBL4765398, “Benzothiophene-2-carboxamide derivatives as SENPs inhibitors with selectivity within SENPs family” (Eur J Med Chem, 2020):

Tests used:
[1] = target: T1, Sentrin-specific protease 1 (Homo sapiens, UniProt Q9P0U3); assay: Inhibition of recombinant human SNEP1 (419 to 644 residues) expressed in Escherichia coli (DE3) cells using RanGAP-SUMO2 substrate preincubated for 10 mins followed by substrate addition and measured after 25 min by Coomassie blue staining based SDS-PAGE analysis
T1 sequence (Q9P0U3 whole entry): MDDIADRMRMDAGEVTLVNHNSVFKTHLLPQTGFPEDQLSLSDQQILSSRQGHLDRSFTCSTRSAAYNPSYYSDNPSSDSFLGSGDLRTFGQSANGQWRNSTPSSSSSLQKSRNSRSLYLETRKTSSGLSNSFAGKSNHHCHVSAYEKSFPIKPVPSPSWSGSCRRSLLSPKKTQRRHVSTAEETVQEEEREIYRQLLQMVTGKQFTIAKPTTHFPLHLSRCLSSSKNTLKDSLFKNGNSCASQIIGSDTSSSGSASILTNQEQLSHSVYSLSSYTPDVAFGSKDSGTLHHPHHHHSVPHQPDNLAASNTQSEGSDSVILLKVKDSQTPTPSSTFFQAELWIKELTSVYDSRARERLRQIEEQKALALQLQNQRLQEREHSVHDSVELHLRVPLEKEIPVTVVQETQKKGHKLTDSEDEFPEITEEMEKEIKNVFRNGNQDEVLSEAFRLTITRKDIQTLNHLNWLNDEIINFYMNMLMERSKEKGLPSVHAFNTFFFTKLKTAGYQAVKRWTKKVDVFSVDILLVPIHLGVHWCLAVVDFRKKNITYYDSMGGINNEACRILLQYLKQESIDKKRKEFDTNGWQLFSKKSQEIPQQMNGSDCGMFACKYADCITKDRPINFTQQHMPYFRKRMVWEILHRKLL

[2] = target: T2, Sentrin-specific protease 2 (Homo sapiens, UniProt Q9HC62); assay: Inhibition of recombinant human SNEP2 (365 to 589 residues) expressed in Escherichia coli (DE3) cells using RanGAP-SUMO2 substrate preincubated for 10 mins followed by substrate addition and measured after 25 min by Coomassie blue staining based SDS-PAGE analysis
T2 sequence (Q9HC62 whole entry): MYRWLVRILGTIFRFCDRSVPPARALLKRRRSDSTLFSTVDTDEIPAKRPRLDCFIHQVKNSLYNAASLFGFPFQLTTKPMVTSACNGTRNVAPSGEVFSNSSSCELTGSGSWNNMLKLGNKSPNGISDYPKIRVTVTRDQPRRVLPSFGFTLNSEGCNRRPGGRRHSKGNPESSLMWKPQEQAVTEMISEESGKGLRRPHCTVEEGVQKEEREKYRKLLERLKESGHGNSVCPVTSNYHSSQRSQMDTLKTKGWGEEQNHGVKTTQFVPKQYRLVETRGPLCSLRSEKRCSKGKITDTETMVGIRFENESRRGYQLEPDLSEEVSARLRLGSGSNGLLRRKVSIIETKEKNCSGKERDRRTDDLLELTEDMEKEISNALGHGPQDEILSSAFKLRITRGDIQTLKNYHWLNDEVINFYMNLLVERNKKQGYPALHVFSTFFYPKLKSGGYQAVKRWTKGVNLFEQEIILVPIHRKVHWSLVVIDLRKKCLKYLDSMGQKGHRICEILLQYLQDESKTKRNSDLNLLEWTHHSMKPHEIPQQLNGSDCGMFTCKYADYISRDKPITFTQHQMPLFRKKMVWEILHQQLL

[3] = target: T3, Sentrin-specific protease 5 (Homo sapiens, UniProt Q96HI0); assay: Inhibition of recombinant human SNEP5 (567 to 755 residues) expressed in Escherichia coli (DE3) cells using RanGAP-SUMO2 substrate preincubated for 10 mins followed by substrate addition and measured after 25 min by Coomassie blue staining based SDS-PAGE analysis
T3 sequence (Q96HI0 whole entry): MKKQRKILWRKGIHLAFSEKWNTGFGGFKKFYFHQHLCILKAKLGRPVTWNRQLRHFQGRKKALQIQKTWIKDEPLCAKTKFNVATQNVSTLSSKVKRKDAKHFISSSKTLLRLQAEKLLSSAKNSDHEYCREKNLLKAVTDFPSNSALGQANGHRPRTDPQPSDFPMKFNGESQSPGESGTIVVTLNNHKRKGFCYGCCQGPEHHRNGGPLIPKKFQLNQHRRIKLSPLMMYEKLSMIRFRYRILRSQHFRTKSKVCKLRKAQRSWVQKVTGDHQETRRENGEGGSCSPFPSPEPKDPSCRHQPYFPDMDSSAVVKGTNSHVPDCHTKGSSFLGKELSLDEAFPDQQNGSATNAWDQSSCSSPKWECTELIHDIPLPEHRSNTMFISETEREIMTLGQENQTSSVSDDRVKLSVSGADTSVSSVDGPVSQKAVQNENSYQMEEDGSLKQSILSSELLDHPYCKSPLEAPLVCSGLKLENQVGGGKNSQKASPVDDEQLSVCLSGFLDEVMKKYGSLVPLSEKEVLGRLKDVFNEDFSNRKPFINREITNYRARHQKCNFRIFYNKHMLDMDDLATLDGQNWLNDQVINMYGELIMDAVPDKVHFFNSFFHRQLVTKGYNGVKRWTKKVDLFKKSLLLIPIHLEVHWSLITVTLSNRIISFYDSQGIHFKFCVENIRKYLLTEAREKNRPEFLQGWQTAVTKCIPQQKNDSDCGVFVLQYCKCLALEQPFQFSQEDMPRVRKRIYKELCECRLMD

[4] = Inhibition of recombinant human SNEP1 K455A mutant (419 to 644 residues) expressed in Escherichia coli (DE3) cells using RanGAP-SUMO2 substrate preincubated for 10 mins followed by substrate addition and measured after 25 min by Coomassie blue staining based SDS-PAGE analysis
[5] = Inhibition of recombinant human SNEP1 Q597A mutant (419 to 644 residues) expressed in Escherichia coli (DE3) cells using RanGAP-SUMO2 substrate preincubated for 10 mins followed by substrate addition and measured after 25 min by Coomassie blue staining based SDS-PAGE analysis
[6] = Inhibition of recombinant human SNEP1 H529A mutant (419 to 644 residues) expressed in Escherichia coli (DE3) cells using RanGAP-SUMO2 substrate preincubated for 10 mins followed by substrate addition and measured after 25 min by Coomassie blue staining based SDS-PAGE analysis
[7] = Inhibition of recombinant human SNEP1 W465A mutant (419 to 644 residues) expressed in Escherichia coli (DE3) cells using RanGAP-SUMO2 substrate preincubated for 10 mins followed by substrate addition and measured after 25 min by Coomassie blue staining based SDS-PAGE analysis
[8] = Inhibition of recombinant human SNEP1 F496A mutant (419 to 644 residues) expressed in Escherichia coli (DE3) cells using RanGAP-SUMO2 substrate preincubated for 10 mins followed by substrate addition and measured after 25 min by Coomassie blue staining based SDS-PAGE analysis

IC50 [1]	IC50 [2]	IC50 [3]	IC50 [4]	IC50 [5]	IC50 [6]	IC50 [7]	IC50 [8]	SMILES
25.4 µM	52.9 µM	28.9 µM	–	–	–	–	–	CC(=O)Nc1cccc(CNC(=O)c2sc3ccccc3c2OCc2ccccc2)c1
–	–	–	3.42 µM	22.4 µM	21.2 µM	40.7 µM	5.92 µM	CCOC(=O)CNc1ccc2sc(C(=O)NCc3cccc(NC(=O)c4cccs4)c3)c(OCc3ccccc3)c2c1
–	–	> 100 µM	–	–	–	–	–	Nc1ccc(C(=O)Nc2cccc(CNC(=O)c3sc4ccccc4c3OCc3ccccc3)c2)cc1
